Source: patent publication US6914045B2, “Glycopeptide antibiotics” (Wyeth Holdings Corporation, priority 2001, dated 2005)
In brackets after ≈: the same amount, converted by molar mass. Numbered stars: 1 amine (or outer) side, 2 acyl side, 3 side chain; on linkers, the order of the positions; unused ones are H or OH. Square brackets hold non-standard residues; d marks the D form. Peptide text beside a SMILES is read from it. * marks the point of attachment. ξ: configuration not given here. X1 = N=C1NCC(C(O)C(N[*:1])C(=O)[*:2])N1C1OC(CO)C(O)C(O)C1O; ξEnduracididine(βξ-OH,4'ξ) = N=C1NCC(C(O)C(N)C(=O)O)N1; X2 = OCC1OC(OC2C(CO)OC(*)C(O)C2O)C(O)C(O)C1O; Cha = N[CH](CC1CCCCC1)C(=O)O

Legend:
Enterococcus sp. = assay: in vitro antibacterial evaluation, MIC by broth dilution; assay type: cell-based; settings: broth dilution, 18 hours at 35° C.
How it was run: (§1)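 Step 1: dilute antibiotic across 64-0.06 μg/mL in Muller-Hinton II […]. Step 2: inoculate at 5×10^5 CFU/mL.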

Streptococcus sp. = assay: as above; assay type: cell-based; settings: broth dilution, 18 hours at 35° C.
How it was run: as §1

Staphylococcus sp. = assay: as above; assay type: cell-based; settings: broth dilution, 18 hours at 35° C.
How it was run: as §1

Escherichia coli = assay: as above; assay type: cell-based; settings: 18 hours at 35° C.
How it was run: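 MIC = lowest antibiotic concentration preventing visible growth; inoculum 5×10^5 CFU/mL; drug range 64-0.06 μg/mL; Muller-Hinton II […]; NCCLS M7-A2 guidance.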

[1] = clinical pathology (serum clinical chemistry) in mice; assay type: in vivo; settings: CD-1 mice, 20 mg/kg intravenously daily for 9 days, sera day 10
Protocol: 20-day-old CD-1 mice were divided into a vehicle control group (5 mice) and a treatment group (5 mice). Samples of glycopeptide antibiotics were administered at 20 mg/kg intravenously daily for 9 days.

[2] = anatomic pathology (histopathology of heart and kidney) in mice; assay type: in vivo; settings: CD-1 mice, 20 mg/kg intravenously daily for 9 days, necropsy day 10, microscopic histopathology
Protocol: Samples of tissues from necropsied mice were formalin-fixed, paraffin-embedded, sectioned, stained with hematoxylin and eosin, and examined microscopically. Histopathologic findings were recorded. These findings were subjectively graded on a scale corresponding to slight, mild, moderate, marked and severe as compared to untreated controls.

N=C1NCC(C(O)C2NC(=O)C(Cc3ccc(OC4OC(CO)C(OC5OC(CO)C(O)C(O)C5O)C(O)C4O)cc3)NC(=O)C(CC3CCCCC3)NC(=O)CNC(=O)C(CO)NC(=O)C(C(O)C3CNC(=N)N3C3OC(CO)C(O)C(O)C3O)NC2=O)N1 (stereo not drawn) [Example 263, Cyclo[3-cyclohexylalanyl-O-(4-O-hexopyranosylhexopyranosyl)tyrosyl-3-(2-iminoimidazolidin-4-yl)seryl-3-(3-hexopyranosyl-2-iminoimidazolidin-4-yl)serylserylglycyl]] (cyclo(G[Cha]Y(X2)[ξEnduracididine(βξ-OH,4'ξ)][X1]S); configuration not given here)
MIC Enterococcus avium (GC 4558) (Enterococcus sp.; Enterococcus avium (GC 4558)): >64 µg/mL
MIC Enterococcus faecalis (ATCC 29212) (Enterococcus sp.; Enterococcus faecalis (ATCC 29212)): >64 µg/mL
MIC Enterococcus faecalis (GC 4553) (Enterococcus sp.; Enterococcus faecalis (GC 4553)): >64 µg/mL
MIC Enterococcus faecalis (GC 4554) (Enterococcus sp.; Enterococcus faecalis (GC 4554)): >64 µg/mL
MIC Enterococcus faecium (GC 2243) (Enterococcus sp.; Enterococcus faecium (GC 2243)): >64 µg/mL
MIC Enterococcus faecium (GC 4556) (Enterococcus sp.; Enterococcus faecium (GC 4556)): >64 µg/mL
MIC Enterococcus faecium (GC 4557) (Enterococcus sp.; Enterococcus faecium (GC 4557)): 32 µg/mL (≈ 24.9 µM)
MIC Enterococcus faecalis (ATCC 29212) (Enterococcus sp.; strain ATCC 29212): >64 µg/mL
MIC Enterococcus faecalis (GC 2242) (Enterococcus sp.; strain GC 2242): >64 µg/mL
MIC Enterococcus faecium (GC 2243) (Enterococcus sp.; strain GC 2243): >64 µg/mL
MIC Enterococcus faecalis (GC 4552) (Enterococcus sp.; strain GC 4552): >64 µg/mL
MIC Enterococcus faecalis (GC 4553) (Enterococcus sp.; strain GC 4553): >64 µg/mL
MIC Enterococcus faecalis (GC 4554) (Enterococcus sp.; strain GC 4554): >64 µg/mL
MIC Enterococcus faecium (GC 4556) (Enterococcus sp.; strain GC 4556): >64 µg/mL
MIC Enterococcus faecium (GC 4557) (Enterococcus sp.; strain GC 4557): 32 µg/mL (≈ 24.9 µM)
MIC Enterococcus avium (GC 4558) (Enterococcus sp.; strain GC 4558): >64 µg/mL
MIC Streptococcus agalactiae (GC 4564) (Streptococcus sp.; strain GC 4564): 32 µg/mL (≈ 24.9 µM)
MIC Streptococcus pyogenes (ID-3187) (Streptococcus sp.; strain ID-3187): 32 µg/mL (≈ 24.9 µM)
MIC Coagulase Negative Staphylococcus (GC 4547) (Staphylococcus sp.): 64 µg/mL (≈ 49.7 µM)
MIC Coagulase Negative Staphylococcus (GC 4548) (Staphylococcus sp.): 32 µg/mL (≈ 24.9 µM)
MIC Coagulase Negative Staphylococcus (GC 4549) (Staphylococcus sp.): 16 µg/mL (≈ 12.4 µM)
MIC Coagulase Negative Staphylococcus (GC 4551) (Staphylococcus sp.): 64 µg/mL (≈ 49.7 µM)
MIC Staphylococcus aureus (ATCC 29213) (Staphylococcus sp.): 64 µg/mL (≈ 49.7 µM)
MIC Staphylococcus aureus (GC 1131) (Staphylococcus sp.): 64 µg/mL (≈ 49.7 µM)
MIC Staphylococcus aureus (GC 4541) (Staphylococcus sp.): 64 µg/mL (≈ 49.7 µM)
MIC Staphylococcus aureus (GC 4542) (Staphylococcus sp.): 64 µg/mL (≈ 49.7 µM)
MIC Staphylococcus aureus (GC 4544) (Staphylococcus sp.): >64 µg/mL
MIC Staphylococcus aureus (GC 4545) (Staphylococcus sp.): 64 µg/mL (≈ 49.7 µM)
MIC Staphylococcus aureus-SMITH (GC 4543) (Staphylococcus sp.): 32 µg/mL (≈ 24.9 µM)
MIC Staphylococcus haemolyticus (GC 4546) (Staphylococcus sp.): 32 µg/mL (≈ 24.9 µM)
MIC Staphylococcus aureus (ATCC 29213) (Staphylococcus sp.; strain ATCC 29213): 64 µg/mL (≈ 49.7 µM)
MIC Staphylococcus aureus (GC 1131) (Staphylococcus sp.; strain GC 1131): 64 µg/mL (≈ 49.7 µM)
MIC Staphylococcus aureus (GC 4541) (Staphylococcus sp.; strain GC 4541): 64 µg/mL (≈ 49.7 µM)
MIC Staphylococcus aureus (GC 4542) (Staphylococcus sp.; strain GC 4542): 64 µg/mL (≈ 49.7 µM)
MIC Staphylococcus aureus (GC 4544) (Staphylococcus sp.; strain GC 4544): >64 µg/mL
MIC Staphylococcus aureus (GC 4545) (Staphylococcus sp.; strain GC 4545): 64 µg/mL (≈ 49.7 µM)
MIC Staphylococcus haemolyticus (GC 4546) (Staphylococcus sp.; strain GC 4546): 32 µg/mL (≈ 24.9 µM)
MIC Coagulase Negative Staphylococcus (GC 4547) (Staphylococcus sp.; strain GC 4547): 64 µg/mL (≈ 49.7 µM)
MIC Coagulase Negative Staphylococcus (GC 4548) (Staphylococcus sp.; strain GC 4548): 32 µg/mL (≈ 24.9 µM)
MIC Coagulase Negative Staphylococcus (GC 4549) (Staphylococcus sp.; strain GC 4549): 16 µg/mL (≈ 12.4 µM)
MIC Coagulase Negative Staphylococcus (GC 4551) (Staphylococcus sp.; strain GC 4551): 64 µg/mL (≈ 49.7 µM)
MIC Staphylococcus aureus-SMITH (GC 4543) (Staphylococcus sp.; strain SMITH GC 4543): 32 µg/mL (≈ 24.9 µM)
MIC Escherichia coli (ATCC 25922) (Escherichia coli; Escherichia coli (ATCC 25922)): >64 µg/mL
MIC Escherichia coli (GC 4559) (Escherichia coli; Escherichia coli (GC 4559)): >64 µg/mL
MIC Escherichia coli (GC 4560) (Escherichia coli; Escherichia coli (GC 4560)): 16 µg/mL (≈ 12.4 µM)
Clinical Chemistry (Day 10) % of Control, Creatinine [1]: +116%
Anatomical Pathology (Day 10), Heart [2]: +
Anatomical Pathology (Day 10), Kidney [2]: ++
